≈ marks a conversion by molar mass, not a printed value. Read-outs that look alike come from different tables or passages of the source.
Assays:
E. faecalis = assay: In vitro antibacterial activity (MIC), two-fold agar-plate dilution method, E. faecalis; format: cell-based; details: Enterococcus faecalis, HI-agar, 37° C., 20 hours, read-out: MIC (minimal inhibitory concentration)
Experimental: (§1) In vitro antibacterial activity were determined by the two-fold agar-plate dilution method as described below.
(§2) One loopful of an overnight culture of each test strain in Trypticase-soy broth (10^8 viable cells per ml) was streaked on heart infusion agar (HI-agar)containing graded concentrations of representative test compound, and the minimal inhibitory concentration (MIC) was expressed in terms of mg/ml after incubation at 37° C. for 20 hours.

[1] = system: Methicillin susceptible S. aureus; assay: In vitro antibacterial activity (MIC), two-fold agar-plate dilution method, methicillin susceptible S. aureus; format: cell-based; details: Staphylococcus aureus, HI-agar, 37° C., 20 hours, read-out: MIC (minimal inhibitory concentration)
Experimental: as §1, §2

[2] = Urinary excretion, bile excretion and plasma level after oral administration to rats; format: in vivo, Male JCL SD rats; details: rat, 20 mg/kg, fasted; for dose excreted at 24 h: 0-24 hours
Experimental: Male JCL SD atrain rats (age, 6 weeks) were used. Test compound was suspended in 0.5% methyl cellurose solution. The rats were atarved overnight before dosing with 20 mg /kg. Urine samples were collected at 0 to 6 and 6 to 24 hours after oral administration. Bile samples were collected at same interval as that of urine samples after a polyethylene cannula was inserted into the bile duct. Plasma samples were obtained by heart puncture at specified times after dosing. Concentrations of test compounds were measured by the disc-plate diffusion method using E. coli ATCC 39188 as test organism and nutrient agar (Difco) as the test medium. The diluents for standard curves were prepared with plasma from rat for determining the plasma levels, with 1/15 M phosphate buffer (pH7.0) for determining the urinary and biliary levels. The plate were incubated at 37° C. for 18 hours and the zone of inhibition were mesured and the recovery rate was calculated by comparing with the standard.

[3] = bile, read-out: Biliary recovery in 24 hours
[4] = urine, read-out: Urinary recovery in 24 hours

SMILES | MIC (E. faecalis) [µg/mL] | MIC [1] [µg/mL] | dose excreted at 24 h [2, 3] [%] | dose excreted at 24 h [2, 4] [%] | AUC ([2]; plasma) [ng·h/mL] | Cmax ([2]; plasma) [ng/mL]
Nc1nc(/C(=N/O)C(=O)N[C@@H]2C(=O)N3C(C(=O)O)=C(SCc4cn[nH]c4)CS[C@H]23)c(Cl)s1 [(1)] | 2900 (≈ 5620 µM) | 250 (≈ 485 µM) | 29 | 39.7 | 52900 | 21800
Nc1nc(/C(=N/O)C(=O)N[C@@H]2C(=O)N3C(C(=O)O)=C(SCc4cccnc4)CS[C@H]23)c(Cl)s1 [(2)] | 2100 (≈ 3980 µM) | 230 (≈ 436 µM) | 19.6 | 17 | – | –
Nc1nc(/C(=N/O)C(=O)N[C@@H]2C(=O)N3C(C(=O)O)=C(SCc4cnn[nH]4)CS[C@H]23)c(Cl)s1 [(3)] | 2100 (≈ 4060 µM) | 270 (≈ 522 µM) | 37.5 | 7.62 | – | –

— patent US6159961A, “Cephem compounds” (Fujisawa Pharmaceutical Co., Ltd., priority 1995, dated 2000)
